Assay results: US8137705B2 (priority 2005, dated 2012)
Entries after “also recorded” stand apart in the source; their conditions may differ.

Test system: E. coli O157:H7
Test: E. coli O157:H7 counts in water with rumen content treated with ozone
Format: cell-based
Conditions: for E. coli O157:H7 (log10 cfu/ml) at min: 0: 0 min; for E. coli O157:H7 (log10 cfu/ml) at min: 1: 1 min; for E. coli O157:H7 (log10 cfu/ml) at min: 2: 2 min; for E. coli O157:H7 (log10 cfu/ml) at min: 5: 5 min; for E. coli O157:H7 (log10 cfu/ml) at min: 10: 10 min; for E. coli O157:H7 (log10 cfu/ml) at min: 20: 20 min
Description: Ozone was produced by an laboratory scale ozone generator (Model H-50, Hess Machine International, Ephrata, Pa.) equipped with an oxygen concentrator (Model AS-12, AirSep, Buffalo, N.Y.) and ozone concentrations (ppm) were measured by the indigo calorimeter method. Ozonated (22-24 ppm at 5° C.) water was mixed with rumen content at ratios of 100:1, 50:1, 25:1, 10:1, and 5:1. MilliQ water (Milli-Q Synthesis A10, Millipore Corp. Brillerica, Mass.) was used as the control. One ml of a mixture of 5 strains of E. coli O157:H7 (10^8 cfu) was mixed with 199 ml of the ozonated water with rumen content at 5° C. and sampled from 0 to 20 min. At each sampling time, 1 ml was removed, and immediately mixed with 9 ml of neutralizing buffer and serially (1:10) diluted and a volume of 0.1 ml from each dilution tube was plated on SMA-NA and TSA-NA plates in duplicate. Plates were incubated at 37° C. for 24 h. Presumptive E. coli O157:H7 colonies were counted and confirmed according to the method described above. All studies were done in duplicate.

[1] = 22-24 ppm ozone, Ozonated water only (no rumen content), 5° C.
[2] = 22-24 ppm ozone, water:rumen content 20:1, 5° C.
[3] = 22-24 ppm ozone, water:rumen content 50:1, 5° C.
[4] = 22-24 ppm ozone, water:rumen content 100:1, 5° C.
[5] = 22-24 ppm ozone, water:rumen content 200:1, 5° C.

## O=[O+][O-] [ozone]
22-24 ppm ozone, 5° C., water with no rumen content, direct plating
  killing of 10^6-10^7 E. coli O157:H7/ml: undetectable level
22-24 ppm ozone, 50 parts water to 1 part rumen content
  E. coli O157:H7 inactivation: Little to no E. coli O157:H7 inactivation
22-24 ppm ozone, 100 parts water to 1 part rumen content or more
  effect of rumen content on antimicrobial activity of ozone: neutralized; also recorded: greatly decreased the antimicrobial activity
[1]
  E. coli O157:H7 (log10 cfu/ml) at min: 0: <1.7 log10 cfu/ml
  E. coli O157:H7 (log10 cfu/ml) at min: 1: <1.7 log10 cfu/ml
  E. coli O157:H7 (log10 cfu/ml) at min: 2: <1.7 log10 cfu/ml
  E. coli O157:H7 (log10 cfu/ml) at min: 5: <1.7 log10 cfu/ml
  E. coli O157:H7 (log10 cfu/ml) at min: 10: <1.7 log10 cfu/ml
  E. coli O157:H7 (log10 cfu/ml) at min: 20: <1.7 log10 cfu/ml
[2]
  E. coli O157:H7 (log10 cfu/ml) at min: 0: 5.6 log10 cfu/ml
  E. coli O157:H7 (log10 cfu/ml) at min: 1: 5.2 log10 cfu/ml
  E. coli O157:H7 (log10 cfu/ml) at min: 2: 5.1 log10 cfu/ml
  E. coli O157:H7 (log10 cfu/ml) at min: 5: 5.1 log10 cfu/ml
  E. coli O157:H7 (log10 cfu/ml) at min: 10: 5.4 log10 cfu/ml
  E. coli O157:H7 (log10 cfu/ml) at min: 20: 5.2 log10 cfu/ml
[3]
  E. coli O157:H7 (log10 cfu/ml) at min: 0: 6.2 log10 cfu/ml
  E. coli O157:H7 (log10 cfu/ml) at min: 1: 6.2 log10 cfu/ml
  E. coli O157:H7 (log10 cfu/ml) at min: 2: 6.4 log10 cfu/ml
  E. coli O157:H7 (log10 cfu/ml) at min: 5: 6.4 log10 cfu/ml
  E. coli O157:H7 (log10 cfu/ml) at min: 10: 6.5 log10 cfu/ml
  E. coli O157:H7 (log10 cfu/ml) at min: 20: 6.3 log10 cfu/ml
[4]
  E. coli O157:H7 (log10 cfu/ml) at min: 0: 5.2 log10 cfu/ml
  E. coli O157:H7 (log10 cfu/ml) at min: 1: 5.4 log10 cfu/ml
  E. coli O157:H7 (log10 cfu/ml) at min: 2: 5.5 log10 cfu/ml
  E. coli O157:H7 (log10 cfu/ml) at min: 5: 5.2 log10 cfu/ml
  E. coli O157:H7 (log10 cfu/ml) at min: 10: 4.5 log10 cfu/ml
  E. coli O157:H7 (log10 cfu/ml) at min: 20: 4.8 log10 cfu/ml
[5]
  E. coli O157:H7 (log10 cfu/ml) at min: 0: <1.7 log10 cfu/ml
  E. coli O157:H7 (log10 cfu/ml) at min: 1: <1.7 log10 cfu/ml
  E. coli O157:H7 (log10 cfu/ml) at min: 2: <1.7 log10 cfu/ml
  E. coli O157:H7 (log10 cfu/ml) at min: 5: <1.7 log10 cfu/ml
  E. coli O157:H7 (log10 cfu/ml) at min: 10: <1.7 log10 cfu/ml
  E. coli O157:H7 (log10 cfu/ml) at min: 20: <1.7 log10 cfu/ml
Ozone 22-24 ppm at 5° C. or 8-12 ppm at 21° C., rumen content at ratios of 50:1 and higher
  effect on killing E. coli O157:H7: minimal effect
